Measured values reported in the COVID Moonshot data (paper PMC7615835).
“And” between values parts separate entries of the source, which are not always exact repeats. Identical values can stand only once.

Biological target: SARS-CoV-2 Main Protease (SARS-CoV-2) (UniProt P0DTD1)

Question: Which IC50 does the source give for `O=C(Cc1cc(Cl)cc(B(O)O)c1)Nc1cncc2ccccc12` here?
Answer: The IC50 was 4.74 µM.

Question: Which IC50 does the source give for `NC(=O)CN1CCCN(C(=O)CCSc2ccc(F)cc2)CC1` here?
Answer: Its IC50 is over 99.5 µM.

Question: Which IC50 does the source give for `Cc1nn2c(CNc3ccc(Cn4cncn4)cc3)c(C)nc2s1` here?
Answer: The IC50 was over 99.5 µM.

Question: How did the IC50 turn out when `CS(=O)(=O)c1ccc2cncc(NC(=O)C3CNC(=O)c4c(F)cc(F)cc43)c2c1` (stereo not drawn) was run?
Answer: Its IC50 is 3.6 µM.

Question: With `C=CC(=O)N(c1ccc(C(C)(C)C)cc1)C(C(=O)NCCCSC)c1cccnc1` (stereo not drawn) as the molecule, how does the IC50 read?
Answer: Its IC50 is 25.5 µM.

Question: For `CN(C)CCOc1ccc2cncc(NC(=O)C3CN(S(=O)(=O)CC4(C)CS(=O)(=O)C4)Cc4ccc(Cl)cc43)c2c1` (stereo not drawn), which IC50 is on record?
Answer: The IC50 was 0.125 µM.

Question: `C[C@@H]1C[C@H](C(=O)Nc2cncc3ccccc23)c2cc(Cl)ccc2O1` (stereo in doubt) was tested. Which IC50 did it give?
Answer: Its IC50 is 0.679 µM.

Question: How did the IC50 turn out when `O=C(Cc1cc(Cl)cc(Nc2cccc(OC(F)(F)F)c2)c1)Nc1cncc2ccccc12` was run?
Answer: Its IC50 is 1.93 µM.

Question: `CCNC(=O)CN1CC(C(=O)Nc2cncc3ccccc23)c2cc(Cl)ccc2C1=O` (stereo not drawn) was tested. Which IC50 did it give?
Answer: The IC50 was 0.0628 µM and 0.105 µM and 0.143 µM.

Question: Which IC50 does the source give for `O=C(Cc1cc(Cl)cc(N2CCN(Cc3ccc(C(F)(F)F)cc3)CC2)c1)Nc1cncc2ccccc12` here?
Answer: Its IC50 is 4.28 µM.

Question: How did the IC50 turn out when `COC(=O)[C@H]1C[C@@H](NC(=O)C(c2cccnc2)N(C(=O)c2cocn2)c2ccc(C(C)(C)C)cc2)CN1C(=O)OC(C)(C)C` (stereo in doubt) was run?
Answer: The IC50 was 5.32 µM.

Question: Which IC50 does the source give for `CN(C(=O)Cn1nnc2ccccc21)c1ccc(Oc2ccc(C(F)(F)F)cn2)cc1` here?
Answer: Its IC50 is 37.8 µM.

Question: How did the IC50 turn out when `O=C(NCCc1cccc(F)c1)C(c1cccnc1)N(C(=O)c1cocn1)c1ccccc1` (stereo not drawn) was run?
Answer: The IC50 was 89.2 µM.

Question: With `Cc1ccc(Cl)cc1N1CCN(c2cc(Cl)cc(CC(=O)Nc3cncc4ccccc34)c2)CC1` as the molecule, how does the IC50 read?
Answer: Its IC50 is 3.37 µM.

Question: With `Cc1c(C(=O)CCl)c2ccccn2c1C(=O)c1ccc(F)cc1` as the molecule, how does the IC50 read?
Answer: The IC50 was 0.719 µM.

Question: How did the IC50 turn out when `O=C(Cc1cccc(Cl)c1)Nc1cnc2n1CCCC2` was run?
Answer: The IC50 was 93.8 µM.

Question: For `NS(=O)(=O)c1ccc(CNC(=O)CC2(C(=O)Nc3cncc4ccccc34)CCOc3ccc(Cl)cc32)cc1` (stereo not drawn), which IC50 is on record?
Answer: Its IC50 is 3.72 µM.

Question: `COc1cc(C)ccc1CN(C(=O)c1cocn1)C(C(=O)NCCc1cccc(F)c1)c1cccnc1` (stereo not drawn) was tested. Which IC50 did it give?
Answer: The IC50 was over 99.5 µM.

Question: With `C=CC(=O)N(c1cc(C(C)(C)C)on1)C(C(=O)NCCc1cccc(F)c1)c1cncc(C#N)c1` (stereo not drawn) as the molecule, how does the IC50 read?
Answer: The IC50 was over 99.5 µM.

Question: How did the IC50 turn out when `O=C(CCl)NC(CO)c1cccc(Cl)c1` (stereo not drawn) was run?
Answer: Its IC50 is over 99 µM.

Question: With `C=CS(=O)(=O)N1CCN(S(=O)(=O)c2ccccc2)CC1` as the molecule, how does the IC50 read?
Answer: The IC50 was over 99.5 µM.

Question: With `O=C(CC1(C(=O)Nc2cncc3ccccc23)CCOc2ccc(Cl)cc21)N1CCC2C1CCCN2CCO` (stereo not drawn) as the molecule, how does the IC50 read?
Answer: The IC50 was 4.66 µM.

Question: How did the IC50 turn out when `COC1(C(=O)Nc2cncc3cc(S(=O)(=O)N(C)C)ccc23)CCOc2ccc(Cl)cc21` (stereo not drawn) was run?
Answer: Its IC50 is 0.458 µM.

Question: How did the IC50 turn out when `O=C(Cc1cccc(Cl)c1)Nc1cncc2nccnc12` was run?
Answer: The IC50 was 76 µM.

Question: For `CC(C)CN1CC(C)(C(=O)Nc2cncc3ccccc23)c2cc(Cl)ccc2S1(=O)=O` (stereo not drawn), which IC50 is on record?
Answer: Its IC50 is 0.153 µM.

Question: With `O=c1oc(Nc2ccccc2)nc2ccccc12` as the molecule, how does the IC50 read?
Answer: Its IC50 is 1.57 µM.

Question: `CN(C)C(=O)CN1CCC(C(=O)Nc2cncc3ccccc23)c2cc(Cl)ccc21` (stereo not drawn) was tested. Which IC50 did it give?
Answer: Its IC50 is 2.54 µM.

Question: How did the IC50 turn out when `Clc1cccc2c1OCCC2Nc1ncccn1` (stereo not drawn) was run?
Answer: The IC50 was over 99.5 µM.

Question: For `O=C1CC(C(=O)N2CCN(c3cccc(Cl)c3)CC2)c2ccccc2N1` (stereo not drawn), which IC50 is on record?
Answer: Its IC50 is 20.9 µM.

Question: With `Cc1cccc(NC(=O)[C@@H](c2ccccc2)N2Cc3ccccc3C2=O)n1` (stereo in doubt) as the molecule, how does the IC50 read?
Answer: Its IC50 is over 99.5 µM.

Question: With `O=C(Cc1cccc(Cl)c1)N1Cc2ccccc2C(O)C1` (stereo not drawn) as the molecule, how does the IC50 read?
Answer: The IC50 was 14.8 µM.

Question: For `O=C(Cc1cccc(Cl)c1)NC1CCCNC1=O` (stereo not drawn), which IC50 is on record?
Answer: Its IC50 is over 99.5 µM.

Question: `COc1cncc(C(C(=O)NCCc2cccc(F)c2)N(C(=O)c2ccco2)c2ccc(C(C)(C)C)cc2)c1C` (stereo not drawn) was tested. Which IC50 did it give?
Answer: The IC50 was over 99.5 µM.

Question: `O=C(Cc1cc(Cl)cc(Nc2ccc([N+](=O)[O-])cc2Cl)c1)Nc1cncc2ccccc12` was tested. Which IC50 did it give?
Answer: Its IC50 is 2.18 µM.

Question: `C[n+]1ccn(CCCc2cccc(Cl)c2)c1C#N` was tested. Which IC50 did it give?
Answer: Its IC50 is over 99.5 µM.

Question: How did the IC50 turn out when `CCNC(=O)CN1CC(C(=O)Nc2cncc3cc(S(C)(=O)=O)ccc23)c2cc(Cl)ccc2C1=O` (stereo not drawn) was run?
Answer: The IC50 was 0.0675 µM and 0.134 µM.

Question: How did the IC50 turn out when `O=C(Nc1cncc2ccccc12)C1CN(C(=O)C2CC2)Cc2ccc(Cl)cc21` (stereo not drawn) was run?
Answer: The IC50 was 0.487 µM.

Question: For `COC1CCC2OCCN(C(=O)c3ccc4nc[nH]c4c3)C2C1` (stereo not drawn), which IC50 is on record?
Answer: Its IC50 is over 99.5 µM.

Question: How did the IC50 turn out when `O=C(Cc1cc(Cl)cc(Nc2ncccc2OCc2ccccc2)c1)Nc1cncc2ccccc12` was run?
Answer: Its IC50 is 2 µM.

Question: With `NC1CCc2c(NC(=O)C3CCOc4ccc(Cl)cc43)cncc21` (stereo not drawn) as the molecule, how does the IC50 read?
Answer: Its IC50 is 25.8 µM.

Question: Which IC50 does the source give for `Clc1ccc2c(c1)C1(CCO2)CCN(c2cncc3ccccc23)C1` (stereo not drawn) here?
Answer: Its IC50 is over 99.5 µM.

Question: For `CS(=O)(=O)c1ccc2c(NC(=O)C3CN(CC(=O)NCC(F)(F)F)C(=O)c4ccc(Cl)cc43)cncc2c1` (stereo not drawn), which IC50 is on record?
Answer: The IC50 was 0.287 µM.

Question: With `Cc1ccccc1C(C)N(C(=O)c1cnc[nH]1)C(C(=O)NCCc1cccc(F)c1)c1cccnc1` (stereo not drawn) as the molecule, how does the IC50 read?
Answer: The IC50 was over 99 µM.

Question: `Cc1ccncc1NC(=O)CN1CCCCC1` was tested. Which IC50 did it give?
Answer: Its IC50 is over 99.5 µM.

Question: With `OCCn1c(CSc2nc3ccccc3o2)nc2ccc(Cl)cc21` as the molecule, how does the IC50 read?
Answer: The IC50 was 0.327 µM.

Question: For `CS(=O)(=O)c1ccc2c(NC(=O)C3CN(CC(=O)NCC4CC4)C(=O)c4ccc(Cl)cc43)cncc2c1` (stereo not drawn), which IC50 is on record?
Answer: Its IC50 is 0.179 µM and 0.174 µM.

Question: With `O=C(Nc1cnc2ccccn12)C1CCNc2cc(Cl)c(Cl)cc21` (stereo not drawn) as the molecule, how does the IC50 read?
Answer: Its IC50 is 1.98 µM.

Question: How did the IC50 turn out when `Cc1ccc2c(c1)c(CCN)cn2-c1cc(Cl)cc(CC(=O)Nc2cncc3ccccc23)c1` was run?
Answer: The IC50 was 1.63 µM.
